{"source": "patent US8741951B2", "about": "“Non-steroidal compounds for androgen receptor modulation” (CNR—Consiglio Nazionale delle Ricerche, priority 2009, dated 2014)", "key": {"[1]": {"test_system": "DU145 cell line", "assay": "SRB cytotoxicity, DU145", "assay_type": "cell-based, human", "conditions": "DU145 (no AR), 144 h, up to 20 μM", "description": "(§1) FIGS. 16-25: cytotoxic effect of compounds (R)-XXIII-2, (R)-XXIII-3, (R)-XXIII-4, (R)-XXIII-5, (R)-XXIII-6, (R)-XXIII-7, (R)-XXIII-8, (R)-XXIII-9, (R)-XXIII-10, (R)-XXIV-9 on PC-3 and DU-145 cell lines at different concentration (0.02, 0.2, 2, 20 μM) after 144 h exposure. On the x-axis is reported the concentration, while on the y-axis is reported the inhibition of the net growth (% net growth).\n(§2) Sulforhodamine B (SRB) assay was used according to the method by Skehan et al. (JNCI, 1990). Briefly, cells were collected by trypsinization, counted and plated at a density of 5,000 cells/well in 96-well flat-bottomed microtiter plates (100 μl of cell suspension/well). In the chemosensitivity assay, experiments were run in octuplicate, and each experiment was repeated three times. The optical density (OD) of cells was determined at a wavelength of 490 nm by a colorimetric plate reader.\n(§3) If ODtreated is above ODzero, treatment has induced a cytostatic effect, whereas if ODtreated is below ODzero, cell killing has occurred. The ODzero depicts the cell number at the moment of drug addition, the ODcontrol reflects the cell number in untreated wells and the ODtreated reflects the cell number in treated wells on the day of the assay."}, "[2]": {"test_system": "human hepatoblastoma cell line HepG2", "assay": "Cytotoxic activity on HepG2 (hepato-toxicity)", "assay_type": "cell-based", "conditions": "HepG2, up to highest concentration tested", "description": "as §2, §3\nFIG. 27-36 show the cytotoxic activity of the drugs on the human hepatoblastoma cell line HepG2. The authors evaluated in vitro the potential hepato-toxicity of some of the novel compounds on HepG2 cell line, a human hepatoblastoma cell line that retains the specialized function of normal hepatocytes [Knowles B B, Howe C C, Aden D P. Human hepatocellular carcinoma cell lines secretes the major plasma proteins and hepatitis B surface antigen. Science 1980, 209:497-499; Aden D P, Vogel A, Plortkin S, Damjanov I, Knowles B B. Controlled synthesis of HBS Ag in a differentiated human liver carcinoma-derived cell line. Nature, 1979, 282:615-616]."}, "[3]": {"test_system": "PC-3 cell line", "assay": "SRB cytotoxicity, PC-3", "assay_type": "cell-based, human", "conditions": "PC-3 (no AR), 144 h, up to 20 μM", "description": "as §1, §2, §3"}, "[4]": {"test_system": "LNCaP cells", "assay": "SRB in vitro chemosensitivity assay, LNCaP", "assay_type": "cell-based", "description": "(§4) The cell lines were maintained as a monolayer at 37° C. and subcultured weekly. Culture medium was composed of RPMI 1640 supplemented with 10% fetal calf serum and 1% glutamine (Mascia Brunelli s.p.a., Milan, Italy). Cells were used in the exponential growth phase in all the experiments.\n(§5) Compounds were dissolved in acetone or DMSO (AITES) ([…]) and stored at −20° C. The cell culture containing acetone at the highest concentration was used as the control.\nas §2, §3\n(§6) FIGS. 2-11 show the cytotoxic activity of the derivative compounds of the invention on the LNCaP and LNCaP-AR cell lines. The authors examined the antitumour activity of the compounds for which the synthesis is described above, in the hormone-sensitive prostate cancer cell line LNCaP and in its derivative cell line LNCaP-AR, expressing high level of AR and with hormone refractory prostate cancer (HRPC) features. The novel compounds were tested at the increasing concentrations of […], 0.2, 2.0, and 20.0 μM. The highest dose used was chosen on the basis of the clinically achievable peak plasma concentration reported in the literature for bicalutamide (Cockshott I D. Clin Pharmacokinet. 2004; 43(13): 855-78). After 144-hr exposure time the cytotoxic effect of the molecules was calculated according to the method of Monks et al. (Monks A, Scudiero D, Skehan P, et al. Feasibility of a high-flux anticancer drug screen using a diverse panel of cultured human tumor cell lines. J Natl Cancer Inst. 1991; 83: 757-66.)"}, "[5]": {"test_system": "LNCaP-AR cells", "assay": "SRB in vitro chemosensitivity assay, LNCaP-AR", "assay_type": "cell-based", "description": "as §4, §5, §2, §3, §6"}}}
{"smiles": "N#Cc1ccc(NC(=O)[C@](O)(Cc2cccs2)CS(=O)(=O)c2ccc(F)cc2)cc1C(F)(F)F", "note": "[(R)-XXIII-6]", "values": [{"measurement": "cytotoxic activity, in words", "setting": "[1]", "result": "negligible cytotoxic activity"}, {"measurement": "hepato-toxicity, in words", "setting": "[2]", "result": "did not display toxicity"}, {"measurement": "cytotoxic activity, in words", "setting": "[3]", "result": "negligible cytotoxic activity"}, {"measurement": "GI50", "setting": "[4]; Homo sapiens, LNCaP, 144 h", "result": 8.9, "unit": "µM"}, {"measurement": "LC50", "setting": "[4]; LNCaP cells, 144 h exposure, up to 20 μM", "result": "n.r."}, {"measurement": "cytotoxic effect (cytostatic / cytocidal), in words", "setting": "[4]; LNCaP, 144 h, up to 20 μM", "result": "suppress completely the cell growth"}, {"measurement": "GI50", "setting": "[5]; Homo sapiens, LNCaP/AR, 144 h", "result": 9.8, "unit": "µM"}, {"measurement": "LC50", "setting": "[5]; LNCaP-AR cells, 144 h exposure, up to 20 μM", "result": "n.r."}, {"measurement": "cytotoxic effect (cytostatic / cytocidal), in words", "setting": "[5]; LNCaP-AR, 144 h, up to 20 μM", "result": "suppress completely the cell growth"}]}
